# Laboratory results reported in patent US8758816B2, “Compositions comprising azelastine and methods of use thereof” (priority 2004, dated 2014).
# Test system: patients with seasonal allergic rhinitis (SAR)
# Experiment: MP 428 two-week randomized double-blind study: Total Nasal Symptom Score (TNSS), change from baseline
# Type: in vivo, human
# Design: key to Change from Baseline in AM TNSS, Mean / Change from Baseline in AM TNSS, LS Mean / Change from Baseline in AM TNSS, Median: TNSS sum of 4 symptoms each 0-3 (0=none, 3=severe); change from baseline
# Description: A two-week, randomized, double-blind study, which evaluated the effects of the co-administration of ASTELIN® (azelastine hydrochloride (HCl)) and FLONASE® (fluticasone propionate) compared to either product alone in patients with seasonal allergic rhinitis (SAR) was conducted during the 2006 Texas mountain cedar season. After a 5-day placebo lead-in period, 151 patients with moderate-to-severe allergic rhinitis symptoms were randomized to either: (1) (49 total patients) ASTELIN® (azelastine hydrochloride (HCl)) plus placebo saline nasal spray 2 sprays per nostril, 15 minutes apart, twice daily (AM & PM); (2) (50 total patients) FLONASE® (fluticasone propionate) plus placebo saline nasal spray, 2 sprays per nostril, 15 minutes apart, once daily (AM) and two sessions of placebo saline nasal spray, 2 sprays per nostril, 15 minutes apart (PM); or (3) (52 total patients) the co-administration of ASTELIN® (azelastine hydrochloride (HCl)) 2 sprays per nostril plus FLONASE® (fluticasone propionate) 2 sprays per nostril (AM), 15 minutes apart, and ASTELIN® (azelastine hydrochloride (HCl)) 2 sprays per nostril plus placebo saline nasal spray, 15 minutes apart, (PM) for a 2-week double-blind treatment period.
# The primary efficacy variable was the change from baseline in the Total Nasal Symptom Score (TNSS), which comprised sneezing, itchy nose, runny nose, and nasal congestion (individual symptoms scores were assigned a value between 0 and 3, where 0=no symptoms and 3=severe symptoms). This study was not statistically designed to assess the differences between ASTELIN® and FLONASE®.
# [1] = Day 9, Intent-to-Treat Population
# [2] = Day 10, Intent-to-Treat Population
# [3] = Day 10, Per-Protocol Population
# [4] = Day 11, Intent-to-Treat Population
# [5] = Day 11, Per-Protocol Population
# [6] = Day 12, Intent-to-Treat Population
smiles,measurement,setting,value
"CCC(=O)O[C@]1(C(=O)SCF)[C@H](C)C[C@H]2[C@@H]3C[C@H](F)C4=CC(=O)C=C[C@]4(C)[C@@]3(F)[C@@H](O)C[C@@]21C [Fluticasone, fluticasone propionate]","Change from Baseline in AM TNSS, Median",[1],−1.83
same,"Change from Baseline in AM and PM Combined TNSS, Mean",[1],−5.08
same,"Change from Baseline in AM and PM Combined TNSS, Median",[1],−4.58
same,"Change from Baseline in PM TNSS, LS Mean",[1],−2.73
same,"Change from Baseline in PM TNSS, Mean",[1],−2.69
same,"Change from Baseline in PM TNSS, Median",[1],−2.00
same,"Percent Change from Baseline in AM TNSS, LS Mean",[1],−24.94%
same,"Percent Change from Baseline in AM TNSS, Mean",[1],−24.52%
same,"Percent Change from Baseline in AM TNSS, Median",[1],−21.95%
same,"Percent Change from Baseline in AM and PM Combined TNSS, LS Mean",[1],−26.50%
same,"Percent Change from Baseline in AM and PM Combined TNSS, Mean",[1],−25.94%
same,"Percent Change from Baseline in AM and PM Combined TNSS, Median",[1],−23.40%
same,"Percent Change from Baseline in PM TNSS, LS Mean",[1],−27.82%
same,"Percent Change from Baseline in PM TNSS, Mean",[1],−27.18%
same,"Percent Change from Baseline in PM TNSS, Median",[1],−22.22%
same,"Change from Baseline in AM and PM Combined TNSS, LS Mean","Day 9, Intent-to-Treat Population, ANCOVA model",−5.17
same,"Change from Baseline in AM and PM Combined TNSS, LS Mean","Day 9, Per-Protocol Population",−5.21
same,"Change from Baseline in AM and PM Combined TNSS, Mean","Day 9, Per-Protocol Population",−5.18
same,"Change from Baseline in AM and PM Combined TNSS, Median","Day 9, Per-Protocol Population",−4.58
same,"Percent Change from Baseline in AM and PM Combined TNSS, LS Mean","Day 9, Per-Protocol Population",−26.65%
same,"Percent Change from Baseline in AM and PM Combined TNSS, Mean","Day 9, Per-Protocol Population",−26.33%
same,"Percent Change from Baseline in AM and PM Combined TNSS, Median","Day 9, Per-Protocol Population",−23.40%
same,"Change from Baseline in AM TNSS, LS Mean",[2],−2.74
same,"Change from Baseline in AM TNSS, Mean",[2],−2.73
same,"Change from Baseline in AM TNSS, Median",[2],−2.80
same,"Change from Baseline in AM and PM Combined TNSS, Mean",[2],−5.61
same,"Change from Baseline in AM and PM Combined TNSS, Median",[2],−4.83
same,"Change from Baseline in PM TNSS, LS Mean",[2],−2.90
same,"Change from Baseline in PM TNSS, Mean",[2],−2.88
same,"Change from Baseline in PM TNSS, Median",[2],−2.60
same,"Percent Change from Baseline in AM TNSS, LS Mean",[2],−28.09%
same,"Percent Change from Baseline in AM TNSS, Mean",[2],−28.06%
same,"Percent Change from Baseline in AM TNSS, Median",[2],−28.36%
same,"Percent Change from Baseline in AM and PM Combined TNSS, LS Mean",[2],−28.93%
same,"Percent Change from Baseline in AM and PM Combined TNSS, Mean",[2],−28.76%
same,"Percent Change from Baseline in AM and PM Combined TNSS, Median",[2],−27.10%
same,"Percent Change from Baseline in PM TNSS, LS Mean",[2],−29.73%
same,"Percent Change from Baseline in PM TNSS, Mean",[2],−29.48%
same,"Percent Change from Baseline in PM TNSS, Median",[2],−27.27%
same,"Change from Baseline in AM and PM Combined TNSS, LS Mean","Day 10, Intent-to-Treat Population, ANCOVA model",−5.64
same,"Change from Baseline in AM and PM Combined TNSS, LS Mean",[3],−5.70
same,"Change from Baseline in AM and PM Combined TNSS, Mean",[3],−5.74
same,"Change from Baseline in AM and PM Combined TNSS, Median",[3],−4.83
same,"Percent Change from Baseline in AM and PM Combined TNSS, LS Mean",[3],−29.19%
same,"Percent Change from Baseline in AM and PM Combined TNSS, Mean",[3],−29.26%
same,"Percent Change from Baseline in AM and PM Combined TNSS, Median",[3],−27.10%
same,"Change from Baseline in AM TNSS, LS Mean",[4],−2.52
same,"Change from Baseline in AM TNSS, Mean",[4],−2.49
same,"Change from Baseline in AM TNSS, Median",[4],−2.00
same,"Change from Baseline in AM and PM Combined TNSS, Mean",[4],−5.77
same,"Change from Baseline in AM and PM Combined TNSS, Median",[4],−4.83
same,"Change from Baseline in PM TNSS, LS Mean",[4],−3.33
same,"Change from Baseline in PM TNSS, Mean",[4],−3.29
same,"Change from Baseline in PM TNSS, Median",[4],−3.00
same,"Percent Change from Baseline in AM TNSS, LS Mean",[4],−25.25%
same,"Percent Change from Baseline in AM TNSS, Mean",[4],−25.02%
same,"Percent Change from Baseline in AM TNSS, Median",[4],−18.37%
same,"Percent Change from Baseline in AM and PM Combined TNSS, LS Mean",[4],−29.71%
same,"Percent Change from Baseline in AM and PM Combined TNSS, Mean",[4],−29.30%
same,"Percent Change from Baseline in AM and PM Combined TNSS, Median",[4],−27.71%
same,"Percent Change from Baseline in PM TNSS, LS Mean",[4],−34.15%
same,"Percent Change from Baseline in PM TNSS, Mean",[4],−33.54%
same,"Percent Change from Baseline in PM TNSS, Median",[4],−33.33%
same,"Change from Baseline in AM and PM Combined TNSS, LS Mean","Day 11, Intent-to-Treat Population, ANCOVA model",−5.85
same,"Change from Baseline in AM and PM Combined TNSS, LS Mean",[5],−5.89
same,"Change from Baseline in AM and PM Combined TNSS, Mean",[5],−5.89
same,"Change from Baseline in AM and PM Combined TNSS, Median",[5],−4.83
same,"Percent Change from Baseline in AM and PM Combined TNSS, LS Mean",[5],−29.83%
same,"Percent Change from Baseline in AM and PM Combined TNSS, Mean",[5],−29.69%
same,"Percent Change from Baseline in AM and PM Combined TNSS, Median",[5],−27.71%
same,"Change from Baseline in AM TNSS, LS Mean",[6],−2.99
same,"Change from Baseline in AM TNSS, Mean",[6],−2.98
same,"Change from Baseline in AM TNSS, Median",[6],−2.75
same,"Change from Baseline in AM and PM Combined TNSS, Mean",[6],−6.08
same,"Change from Baseline in AM and PM Combined TNSS, Median",[6],−5.17
same,"Change from Baseline in PM TNSS, LS Mean",[6],−3.13
same,"Change from Baseline in PM TNSS, Mean",[6],−3.10
same,"Change from Baseline in PM TNSS, Median",[6],−3.00
same,"Percent Change from Baseline in AM TNSS, LS Mean",[6],−30.64%
same,"Percent Change from Baseline in AM TNSS, Mean",[6],−30.49%
same,"Percent Change from Baseline in AM TNSS, Median",[6],−26.83%
same,"Percent Change from Baseline in AM and PM Combined TNSS, LS Mean",[6],−31.31%
same,"Percent Change from Baseline in AM and PM Combined TNSS, Mean",[6],−31.04%
same,"Percent Change from Baseline in AM and PM Combined TNSS, Median",[6],−27.78%
same,"Percent Change from Baseline in PM TNSS, LS Mean",[6],−32.00%
same,"Percent Change from Baseline in PM TNSS, Mean",[6],−31.52%
